The record followed here is article PMC6199744, “Development of Chemical Proteomics for the Folateome and Analysis of the Kinetoplastid Folateome” (ACS Infectious Diseases, 2018).

Type in all cases: binding
The target in assay [1] is T1, HeLa cell extract proteins (Homo sapiens, UniProt P00441).
T1 construct: endogenous in cells; host or cells: HeLa cell extract
The following applies: HeLa; protein SOD1.

The target in assay [2] is T2, HeLa cell extract proteins (Homo sapiens, UniProt P05023).
T2 construct: endogenous in cells; host or cells: HeLa cell extract
The following applies: protein ATP1A1; HeLa.

Assay [3] has as its target T3, HeLa cell extract proteins (Homo sapiens, UniProt P15121).
T3 construct: endogenous in cells; host or cells: HeLa cell extract
Particulars: HeLa; protein AKR1B1.

Assay [4] has as its target T4, HeLa cell extract proteins (Homo sapiens, UniProt P16070).
T4 construct: endogenous in cells; host or cells: HeLa cell extract
Particulars: protein CD44; HeLa.

In assay [5] the target is T5, HeLa cell extract proteins (Homo sapiens, UniProt P26639).
T5 construct: endogenous in cells; host or cells: HeLa cell extract
T5 sequence (P26639 1-723): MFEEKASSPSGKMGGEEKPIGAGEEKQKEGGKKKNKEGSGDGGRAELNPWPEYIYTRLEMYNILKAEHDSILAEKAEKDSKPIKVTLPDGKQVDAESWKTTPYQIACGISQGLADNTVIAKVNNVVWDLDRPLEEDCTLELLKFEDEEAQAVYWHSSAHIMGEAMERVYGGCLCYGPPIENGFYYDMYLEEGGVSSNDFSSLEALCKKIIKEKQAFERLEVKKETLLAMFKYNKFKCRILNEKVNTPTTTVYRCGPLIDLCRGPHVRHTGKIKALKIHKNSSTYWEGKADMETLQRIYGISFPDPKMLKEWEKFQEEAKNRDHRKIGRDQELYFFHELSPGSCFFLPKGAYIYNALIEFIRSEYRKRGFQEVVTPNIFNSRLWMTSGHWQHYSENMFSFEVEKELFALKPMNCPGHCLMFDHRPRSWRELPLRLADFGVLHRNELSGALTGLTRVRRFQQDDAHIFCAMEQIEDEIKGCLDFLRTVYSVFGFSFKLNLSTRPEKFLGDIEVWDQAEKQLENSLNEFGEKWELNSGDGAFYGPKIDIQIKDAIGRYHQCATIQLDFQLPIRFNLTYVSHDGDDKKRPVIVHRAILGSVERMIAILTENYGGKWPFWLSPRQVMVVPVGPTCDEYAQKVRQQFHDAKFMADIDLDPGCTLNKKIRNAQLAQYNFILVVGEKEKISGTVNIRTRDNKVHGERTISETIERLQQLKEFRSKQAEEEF
The following applies: HeLa; protein TARS.

Assay [6] has as its target T6, HeLa cell extract proteins (Homo sapiens, UniProt P27348).
T6 construct: endogenous in cells; host or cells: HeLa cell extract
T6 sequence (P27348 1-245): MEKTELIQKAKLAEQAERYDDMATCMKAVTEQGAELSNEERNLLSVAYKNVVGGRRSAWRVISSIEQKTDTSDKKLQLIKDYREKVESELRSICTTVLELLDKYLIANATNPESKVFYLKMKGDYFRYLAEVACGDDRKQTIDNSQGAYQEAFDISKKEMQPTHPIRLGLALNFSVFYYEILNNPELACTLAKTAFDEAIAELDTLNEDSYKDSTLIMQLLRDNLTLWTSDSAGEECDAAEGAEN
The following applies: HeLa; protein YWHAQ.

Assay [7] concerns the target T7, HeLa cell extract proteins (Homo sapiens, UniProt P30041).
T7 construct: endogenous in cells; host or cells: HeLa cell extract
T7 sequence (P30041 1-224): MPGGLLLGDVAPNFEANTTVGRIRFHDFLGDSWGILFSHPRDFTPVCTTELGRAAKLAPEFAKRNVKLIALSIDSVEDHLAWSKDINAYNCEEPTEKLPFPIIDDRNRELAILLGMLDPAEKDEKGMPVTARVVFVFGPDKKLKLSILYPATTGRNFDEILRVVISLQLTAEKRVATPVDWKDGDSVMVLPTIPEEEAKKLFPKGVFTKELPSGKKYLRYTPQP
Particulars: HeLa; protein PRDX6.

Assay [8] addresses T8, HeLa cell extract proteins (Homo sapiens, UniProt P31930).
T8 construct: endogenous in cells; host or cells: HeLa cell extract
T8 sequence (P31930 35-480): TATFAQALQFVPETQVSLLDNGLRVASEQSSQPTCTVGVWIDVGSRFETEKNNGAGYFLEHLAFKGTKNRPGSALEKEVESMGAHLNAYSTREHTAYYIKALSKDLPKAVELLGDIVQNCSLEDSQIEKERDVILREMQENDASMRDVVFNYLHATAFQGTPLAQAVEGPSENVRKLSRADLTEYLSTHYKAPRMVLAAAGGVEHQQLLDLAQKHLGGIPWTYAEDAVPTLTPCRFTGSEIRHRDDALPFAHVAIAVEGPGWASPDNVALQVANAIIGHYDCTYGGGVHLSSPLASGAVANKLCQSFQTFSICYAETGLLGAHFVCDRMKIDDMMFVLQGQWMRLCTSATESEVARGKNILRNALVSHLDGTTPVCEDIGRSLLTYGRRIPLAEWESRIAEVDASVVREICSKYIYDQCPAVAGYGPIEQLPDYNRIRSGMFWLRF
Particulars: HeLa; captured protein UQCRC1.

Assay [9] has as its target T9, HeLa cell extract proteins (Homo sapiens, UniProt P31948).
T9 construct: endogenous in cells; host or cells: HeLa cell extract
Particulars: protein STIP1; HeLa.

Assay [10] deals with T10, HeLa cell extract proteins (Homo sapiens, UniProt P49336).
T10 construct: endogenous in cells; host or cells: HeLa cell extract
The following applies: protein CDK8; HeLa.

The target in assay [11] is T11, HeLa cell extract proteins (Homo sapiens, UniProt P49720).
T11 construct: endogenous in cells; host or cells: HeLa cell extract
T11 sequence (P49720 1-205): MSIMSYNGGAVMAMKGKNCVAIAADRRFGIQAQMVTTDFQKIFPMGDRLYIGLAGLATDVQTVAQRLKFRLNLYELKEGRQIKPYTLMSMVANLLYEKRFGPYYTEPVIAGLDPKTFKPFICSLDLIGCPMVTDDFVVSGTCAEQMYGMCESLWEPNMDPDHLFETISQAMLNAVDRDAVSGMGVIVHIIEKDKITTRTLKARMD
The following applies: HeLa; protein PSMB3.

Assay [12] has as its target T12, HeLa cell extract proteins (Homo sapiens, UniProt Q96CW5).
T12 construct: endogenous in cells; host or cells: HeLa cell extract
The following applies: HeLa; protein TUBGCP3.

In assay [13] the target is T13, HeLa cell extract proteins (Homo sapiens, UniProt Q96QK1).
T13 construct: endogenous in cells; host or cells: HeLa cell extract
Particulars: HeLa; protein VPS35.

For assay [14], the target named is T14, HeLa cell extract proteins (Homo sapiens, UniProt Q9BQA1).
T14 construct: endogenous in cells; host or cells: HeLa cell extract
Particulars: HeLa; protein WDR77.

In assay [15] the target is T15, HeLa cell extract proteins (Homo sapiens, UniProt Q9HBL8).
T15 construct: endogenous in cells; host or cells: HeLa cell extract
Particulars: protein NMRAL1; HeLa.

Assay [16] addresses T16, HeLa cell extract proteins (Homo sapiens, UniProt Q9Y230).
T16 construct: endogenous in cells; host or cells: HeLa cell extract
Particulars: protein RUVBL2; HeLa.

T14 sequence (Q9BQA1 whole entry): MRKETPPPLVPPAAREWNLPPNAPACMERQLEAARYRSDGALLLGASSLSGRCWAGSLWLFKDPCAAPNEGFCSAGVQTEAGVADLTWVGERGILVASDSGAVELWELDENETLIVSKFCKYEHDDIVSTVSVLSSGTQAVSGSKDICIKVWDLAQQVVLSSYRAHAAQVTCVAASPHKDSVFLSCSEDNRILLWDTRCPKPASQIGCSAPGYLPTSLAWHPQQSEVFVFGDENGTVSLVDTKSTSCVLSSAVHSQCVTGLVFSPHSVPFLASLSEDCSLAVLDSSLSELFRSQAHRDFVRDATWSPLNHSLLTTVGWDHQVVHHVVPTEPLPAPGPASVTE
T1 sequence (P00441 whole entry): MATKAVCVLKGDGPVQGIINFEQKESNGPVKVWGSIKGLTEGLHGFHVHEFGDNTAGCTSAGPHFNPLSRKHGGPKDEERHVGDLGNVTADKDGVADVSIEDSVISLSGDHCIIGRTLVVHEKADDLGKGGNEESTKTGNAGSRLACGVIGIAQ
T16 sequence (Q9Y230 whole entry): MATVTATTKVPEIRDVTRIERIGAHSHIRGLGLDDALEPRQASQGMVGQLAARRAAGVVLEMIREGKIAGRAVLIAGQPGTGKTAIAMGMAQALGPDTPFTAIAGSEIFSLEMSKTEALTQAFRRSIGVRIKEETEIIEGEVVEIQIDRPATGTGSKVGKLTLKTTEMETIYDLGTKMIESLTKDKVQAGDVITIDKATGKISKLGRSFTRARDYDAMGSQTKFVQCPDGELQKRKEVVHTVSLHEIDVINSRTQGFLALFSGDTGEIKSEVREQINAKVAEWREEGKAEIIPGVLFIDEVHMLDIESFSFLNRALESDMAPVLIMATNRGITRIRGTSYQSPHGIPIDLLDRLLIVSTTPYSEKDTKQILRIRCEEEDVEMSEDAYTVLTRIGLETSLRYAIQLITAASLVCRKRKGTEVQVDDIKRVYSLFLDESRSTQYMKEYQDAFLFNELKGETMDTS
T12 sequence (Q96CW5 whole entry): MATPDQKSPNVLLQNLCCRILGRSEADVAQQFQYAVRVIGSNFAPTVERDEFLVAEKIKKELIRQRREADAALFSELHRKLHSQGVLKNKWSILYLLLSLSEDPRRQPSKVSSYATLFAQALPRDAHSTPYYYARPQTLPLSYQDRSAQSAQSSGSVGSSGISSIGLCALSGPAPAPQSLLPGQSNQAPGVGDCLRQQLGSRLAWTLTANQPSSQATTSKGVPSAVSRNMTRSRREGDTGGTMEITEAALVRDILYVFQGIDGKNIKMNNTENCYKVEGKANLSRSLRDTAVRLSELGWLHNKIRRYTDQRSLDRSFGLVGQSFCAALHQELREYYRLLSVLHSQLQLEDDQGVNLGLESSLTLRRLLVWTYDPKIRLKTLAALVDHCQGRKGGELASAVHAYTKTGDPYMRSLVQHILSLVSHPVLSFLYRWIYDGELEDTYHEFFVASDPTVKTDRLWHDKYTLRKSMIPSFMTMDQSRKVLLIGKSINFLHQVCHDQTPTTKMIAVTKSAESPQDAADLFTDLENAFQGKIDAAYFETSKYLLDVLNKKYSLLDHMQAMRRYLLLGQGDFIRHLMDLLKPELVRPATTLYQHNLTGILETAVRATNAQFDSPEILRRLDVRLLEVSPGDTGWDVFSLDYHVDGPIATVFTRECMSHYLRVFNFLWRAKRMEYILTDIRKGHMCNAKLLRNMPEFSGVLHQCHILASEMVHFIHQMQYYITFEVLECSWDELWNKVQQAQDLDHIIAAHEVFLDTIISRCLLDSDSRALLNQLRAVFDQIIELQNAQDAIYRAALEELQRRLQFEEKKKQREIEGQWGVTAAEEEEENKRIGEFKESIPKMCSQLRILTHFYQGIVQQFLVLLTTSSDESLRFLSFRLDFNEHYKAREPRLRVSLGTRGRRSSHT
T9 sequence (P31948 whole entry): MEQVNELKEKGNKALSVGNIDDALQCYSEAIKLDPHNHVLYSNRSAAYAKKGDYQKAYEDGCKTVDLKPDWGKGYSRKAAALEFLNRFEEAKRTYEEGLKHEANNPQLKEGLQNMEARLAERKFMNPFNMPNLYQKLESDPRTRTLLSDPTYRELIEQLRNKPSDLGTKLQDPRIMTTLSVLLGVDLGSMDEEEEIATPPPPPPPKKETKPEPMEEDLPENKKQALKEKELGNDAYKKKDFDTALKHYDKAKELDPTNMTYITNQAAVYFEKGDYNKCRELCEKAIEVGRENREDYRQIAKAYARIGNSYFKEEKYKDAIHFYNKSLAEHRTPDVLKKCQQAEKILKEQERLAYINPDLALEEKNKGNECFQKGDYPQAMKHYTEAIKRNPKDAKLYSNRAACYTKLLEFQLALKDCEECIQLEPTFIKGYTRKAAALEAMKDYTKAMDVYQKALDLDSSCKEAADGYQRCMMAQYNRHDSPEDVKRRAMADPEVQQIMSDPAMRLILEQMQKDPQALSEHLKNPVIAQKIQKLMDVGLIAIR
T10 sequence (P49336 whole entry): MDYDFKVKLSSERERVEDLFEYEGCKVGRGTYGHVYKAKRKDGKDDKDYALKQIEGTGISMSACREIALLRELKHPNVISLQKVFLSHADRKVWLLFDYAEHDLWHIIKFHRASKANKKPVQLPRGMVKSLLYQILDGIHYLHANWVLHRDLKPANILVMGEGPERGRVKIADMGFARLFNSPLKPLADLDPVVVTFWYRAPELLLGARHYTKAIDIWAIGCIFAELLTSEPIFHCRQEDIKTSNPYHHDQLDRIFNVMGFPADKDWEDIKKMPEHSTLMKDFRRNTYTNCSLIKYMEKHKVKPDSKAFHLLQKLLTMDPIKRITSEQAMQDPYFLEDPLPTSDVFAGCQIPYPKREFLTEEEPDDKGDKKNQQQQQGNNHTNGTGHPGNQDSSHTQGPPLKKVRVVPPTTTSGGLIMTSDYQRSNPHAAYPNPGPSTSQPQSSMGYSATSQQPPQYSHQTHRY
T15 sequence (Q9HBL8 whole entry): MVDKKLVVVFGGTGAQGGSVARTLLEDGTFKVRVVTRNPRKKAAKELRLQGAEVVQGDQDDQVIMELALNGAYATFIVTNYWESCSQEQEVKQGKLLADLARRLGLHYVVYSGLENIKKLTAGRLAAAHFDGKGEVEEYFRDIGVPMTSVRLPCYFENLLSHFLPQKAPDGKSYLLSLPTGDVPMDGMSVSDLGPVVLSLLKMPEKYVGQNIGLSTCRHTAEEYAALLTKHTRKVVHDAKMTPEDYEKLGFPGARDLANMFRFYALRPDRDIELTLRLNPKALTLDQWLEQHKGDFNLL
T4 sequence (P16070 21-742): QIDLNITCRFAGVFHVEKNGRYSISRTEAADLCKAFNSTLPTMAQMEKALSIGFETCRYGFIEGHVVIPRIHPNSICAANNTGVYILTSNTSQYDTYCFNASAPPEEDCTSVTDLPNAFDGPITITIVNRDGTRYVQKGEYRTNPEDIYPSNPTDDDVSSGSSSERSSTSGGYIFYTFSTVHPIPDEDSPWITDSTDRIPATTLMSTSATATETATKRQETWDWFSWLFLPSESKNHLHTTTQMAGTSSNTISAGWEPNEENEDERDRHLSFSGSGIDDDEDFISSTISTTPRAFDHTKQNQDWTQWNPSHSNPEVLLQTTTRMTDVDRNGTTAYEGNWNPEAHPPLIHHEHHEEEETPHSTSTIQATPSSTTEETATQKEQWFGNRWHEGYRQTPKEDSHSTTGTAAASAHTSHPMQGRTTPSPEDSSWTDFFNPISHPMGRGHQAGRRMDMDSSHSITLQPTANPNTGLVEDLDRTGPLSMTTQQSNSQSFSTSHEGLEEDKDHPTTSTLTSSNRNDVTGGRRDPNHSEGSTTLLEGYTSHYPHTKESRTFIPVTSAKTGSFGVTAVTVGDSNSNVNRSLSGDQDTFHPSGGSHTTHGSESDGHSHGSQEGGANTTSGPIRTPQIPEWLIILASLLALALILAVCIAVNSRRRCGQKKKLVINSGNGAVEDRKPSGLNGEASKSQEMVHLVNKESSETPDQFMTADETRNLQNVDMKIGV

As to `NCCOCCOCC(=O)Nc1nc2ncc(CNc3ccc(C(=O)NC(CCC(=O)O)C(=O)O)cc3)nc2c(=O)[nH]1` (centres unmarked) [compound 6], the “fold changes relative to vehicle control” value in [1] was 1.44; in assay [2], 1.05; in [3] it was 1.2; in assay [4], 1.3; in assay [5], 1.12; in [6] it was 1.15. Besides, the “fold changes relative to vehicle control” value was 1.33 in [7]; 0.95 in [8]; 1.13 in assay [9]; 0.9 in [10]; 1.12 in assay [11]; 1 in assay [12]. Besides, the “fold changes relative to vehicle control” value in [13] is 1.15; in assay [14], 1.03; in [15], 0.62; in assay [16], 1.06.
For `NCCCNc1ccc(C(=O)NC(CCC(=O)O)C(=O)O)cc1` (centres unmarked) [compound 7], the “fold changes relative to vehicle control” value in [1] is 1.08; in assay [2] it was 0.92; in [3], 0.95; in assay [4], 1.06; in assay [5], 0.97; in assay [6], 0.86. Besides, the “fold changes relative to vehicle control” value in [7] was found to be 1.01; in assay [8] it was 0.99; in assay [9], 0.92; in assay [10] it was 1.01; in [11], 0.92; in [12], 1.01. The “fold changes relative to vehicle control” value in [13] worked out at 1.1; in [14], 0.96; in assay [15], 1.03; in assay [16] it was 0.95.
